Reference: US20170290915A1, “METHODS FOR DELIVERING AN ANTI-CANCER AGENT TO A TUMOR” (priority 2010, published 2017)
Values joined by “and” are separate entries in the source; they are usually repeats but may differ in a detail not shown here. Identical values can stand only once.

Experiments:
[1] = Evans blue dye (EBD) delivery to tumor, thermal enhancement ratio (TER); type: in vivo, mice
Procedure: Mouse sarcoma S-180 cells were propagated by intraperitoneal injection (5×10^6 S-180 cells in 1 ml phosphate buffered saline (PBS)) in female CD-1 mice (4-6 weeks old) and allowed to grow until 15% weight gain was observed. Animals were then euthanized by CO2 gas inhalation and the cells were harvested from the abdominal cavity. The cells were then washed to remove blood, diluted and subcutaneously injected into each flank of the animal (2×10^6 cells/flank in 200 μl PBS) while anesthetized with isofluorane. Tumors were then allowed to grow until average tumor volume reached 50-100 mm^3 (usually 7-10 days).
The animals were separated randomly into groups. Half received 200 μl of GNRs (9.6 mg/kg, OD=120) and the other half saline by intravenous injection through the tail vein. After 24 hours, enough time for the GNRs to accumulate in the tumor at 1.22% injected dosed based on previous experiments and other reports in the literature (Dickerson et al., 2008), the animals were anesthetized and the areas around the tumors were shaved and swabbed with 50% propylene glycol to enhance laser penetration depth. After 20 minutes EBD (10 mg/kg in 200 μl saline) was injected intravenously and a 33 gauge needle thermocouple (Omega #HYPO-33-1-T-G-60-SMPW-M) was inserted into the center of the tumor to monitor tumor temperatures. After roughly 10 seconds that temperature data was collected, an 808 nm fiber coupled laser diode (Oclaro #BMU6-808-02-R01) with collimating lens (Thorlabs #F810SMA-780, spot size=7 mm) was directed over the right tumor and radiated. Two different laser powers were used in this study (1.6 and 1.2 W/cm^2) such that one group received severe and the other moderate tumor hyperthermia. After 10 minutes of radiation, the laser was turned off and tumors were allowed to cool for two minutes before removal of the temperature probe.
After the animals were allowed to rest for 5 hours, enough time for the EBD to be cleared from the blood, the animals were sacrificed by CO2 inhalation. Both tumors were collected, weighed and the EBD was extracted in 1.5 ml of formamide for 48 hrs at 60° C. The EBD content was then measured spectrophotometrically at 620 nm and divided by the weight of the tumor. The extravasation of EBD was then calculated as a ratio of the right (treated) to left (untreated) tumor and expressed as a thermal enhancement ratio (TER).

[2] = target: T1, αvβ3 integrins (Homo sapiens, UniProt P05106+P06756); experiment: Competitive inhibition of RGDfK-GNR binding with echistatin; type: cell-based; conditions: echistatin 50 nM co-incubation; HUVECs; 4° C. for 2 hours; binding buffer
T1 construct: endogenous in cells; host or cells: HUVEC
Procedure: Confirmation of RGDfK-GNR specificity to αvβ3 integrins was performed by competitive inhibition of binding with echistatin. In brief, HUVEC cells were grown to 50% confluency on fibronectin coated cover slips. The media was then removed and replaced with cold binding buffer (20 mmol/L Tris, pH 7.4, 150 mmol/L NaCl, 2 mmol/L CaCl2, 1 mmol/L MgCl2, 1 mmol/L MnCl2, 0.1% bovine serum albumin) containing RGDfK-GNRs (10 μg/ml) and HUVECs were co-incubated at 4° C. for 2 hours with or without 50 nM echistatin (Sigma-Aldrich). Cells were then washed three times with cold binding buffer, mounted to a slide and imaged by high-resolution dark field microscopy.

Cc1cc(-c2ccc(/N=N/c3ccc4c(S(=O)(=O)[O-])cc(S(=O)(=O)[O-])c(N)c4c3O)c(C)c2)ccc1/N=N/c1ccc2c(S(=O)(=O)[O-])cc(S(=O)(=O)[O-])c(N)c2c1O.[Na+].[Na+].[Na+].[Na+] [EBD, Evans blue dye]
TER (EBD in treated/untreated tumor) ([1]; Laser alone (no GNRs), 1.2 W/cm^2): 0.94 ± 0.25
TER (EBD in treated/untreated tumor) ([1]; Laser alone (no GNRs), 1.6 W/cm^2): 1.05 ± 0.15
TER (EBD in treated/untreated tumor) ([1]; PPTT (GNRs + laser), 1.2 W/cm^2): 1.68 and 1.68 ± 0.65
TER (EBD in treated/untreated tumor) ([1]; PPTT (GNRs + laser), 1.6 W/cm^2, EBD 10 mg/kg i.v., 5 hours): 1.82 and 1.82 ± 0.40
TER ([1]; laser treatment without the presence of GNRs (power not specified)): around 1.0

echistatin
Inhibition of RGDfK-GNR binding to the cell's surface [2]: almost complete inhibition
